Experimental data as given in PMC4899901, “Sorokiniol: a new enzymes inhibitory metabolite from fungal endophyte Bipolaris sorokiniana LK12” (BMC Microbiology, 2016).

Tests used:
[1] = biological target: Acetyl Cholinestrase (AChE) (Electrophorus electricus, UniProt O42275); assay: Ellman assay (acetylthiocholine/DTNB, […] nm) with electric eel AChE; format: biochemical; conditions: read-out: EC50 (the source's name) (converted)
[2] = biological target: Jack bean Urease (Canavalia ensiformis, UniProt P07374); assay: indophenol urease assay (ammonia production, […] nm); format: biochemical
Chain of Jack bean Urease (P07374 whole entry, looked up): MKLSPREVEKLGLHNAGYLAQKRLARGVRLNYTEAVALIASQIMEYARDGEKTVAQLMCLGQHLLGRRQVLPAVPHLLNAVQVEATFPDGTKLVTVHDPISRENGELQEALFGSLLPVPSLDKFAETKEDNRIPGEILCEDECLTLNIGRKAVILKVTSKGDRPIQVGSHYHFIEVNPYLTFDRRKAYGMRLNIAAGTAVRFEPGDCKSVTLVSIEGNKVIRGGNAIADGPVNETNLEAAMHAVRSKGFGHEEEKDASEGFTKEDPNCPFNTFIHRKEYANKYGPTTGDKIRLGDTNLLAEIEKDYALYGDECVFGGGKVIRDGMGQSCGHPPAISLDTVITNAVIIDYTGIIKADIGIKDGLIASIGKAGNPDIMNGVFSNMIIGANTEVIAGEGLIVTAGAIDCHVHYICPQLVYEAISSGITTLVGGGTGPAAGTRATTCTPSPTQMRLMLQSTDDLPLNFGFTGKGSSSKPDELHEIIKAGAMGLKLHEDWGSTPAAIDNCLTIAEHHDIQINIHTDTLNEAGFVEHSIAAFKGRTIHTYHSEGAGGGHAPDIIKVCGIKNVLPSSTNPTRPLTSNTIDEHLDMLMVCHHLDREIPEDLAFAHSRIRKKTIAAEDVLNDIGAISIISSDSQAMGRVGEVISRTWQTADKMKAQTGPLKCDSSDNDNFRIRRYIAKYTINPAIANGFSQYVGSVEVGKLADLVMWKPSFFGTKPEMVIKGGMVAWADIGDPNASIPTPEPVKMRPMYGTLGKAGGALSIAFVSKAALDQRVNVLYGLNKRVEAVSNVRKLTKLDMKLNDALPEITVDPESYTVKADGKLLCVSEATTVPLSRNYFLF

Chain of Acetyl Cholinestrase (AChE) (O42275 24-633): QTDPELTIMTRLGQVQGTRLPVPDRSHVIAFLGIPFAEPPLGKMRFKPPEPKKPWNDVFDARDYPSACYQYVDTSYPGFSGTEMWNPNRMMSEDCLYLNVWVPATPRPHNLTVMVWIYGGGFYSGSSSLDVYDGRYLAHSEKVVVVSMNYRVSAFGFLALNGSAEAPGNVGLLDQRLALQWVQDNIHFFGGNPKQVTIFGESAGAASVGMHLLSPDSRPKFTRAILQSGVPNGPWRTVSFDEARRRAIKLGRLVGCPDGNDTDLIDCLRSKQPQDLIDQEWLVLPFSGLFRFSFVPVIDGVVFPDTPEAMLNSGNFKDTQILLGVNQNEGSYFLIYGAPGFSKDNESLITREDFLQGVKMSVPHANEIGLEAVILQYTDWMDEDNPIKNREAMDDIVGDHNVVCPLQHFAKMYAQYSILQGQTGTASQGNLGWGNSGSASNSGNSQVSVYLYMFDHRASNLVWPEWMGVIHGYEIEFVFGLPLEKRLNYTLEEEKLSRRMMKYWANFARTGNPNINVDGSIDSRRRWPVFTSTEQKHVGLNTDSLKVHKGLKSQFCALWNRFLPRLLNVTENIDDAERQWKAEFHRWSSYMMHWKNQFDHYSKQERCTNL

Structure (SMILES): CC(C)c1ccc(CCCCCCCCCCCCCCCCCO)cc1 [compound 1, sorokiniol]
- IC50 [1]: 9.08 µM

Structure (SMILES): NC(N)=S [thiourea]
- % Inhibition [2]: 95 ± 1.50 % Inhibition
